{"source": "paper PMC12615753", "about": "“Glutathione as a taste modulator: molecular mechanisms of interaction with umami and sweet taste receptors” (Food Chemistry: Molecular Sciences, 2025)", "biological_target": "T1, hTAS1R1 H71Y/rTAS1R3 (UniProt Q7RTX1+Q923K1, H71Y)", "T1 construct": "UniProtKB number Q7RTX1–1); The cDNA coding region of rTAS1R3 was synthesized with optimized-codon usage for human expression; expressed in transfected cells; host or cells: HEK293T/17", "T1 sequence (Q7RTX1 21-841 H71Y)": "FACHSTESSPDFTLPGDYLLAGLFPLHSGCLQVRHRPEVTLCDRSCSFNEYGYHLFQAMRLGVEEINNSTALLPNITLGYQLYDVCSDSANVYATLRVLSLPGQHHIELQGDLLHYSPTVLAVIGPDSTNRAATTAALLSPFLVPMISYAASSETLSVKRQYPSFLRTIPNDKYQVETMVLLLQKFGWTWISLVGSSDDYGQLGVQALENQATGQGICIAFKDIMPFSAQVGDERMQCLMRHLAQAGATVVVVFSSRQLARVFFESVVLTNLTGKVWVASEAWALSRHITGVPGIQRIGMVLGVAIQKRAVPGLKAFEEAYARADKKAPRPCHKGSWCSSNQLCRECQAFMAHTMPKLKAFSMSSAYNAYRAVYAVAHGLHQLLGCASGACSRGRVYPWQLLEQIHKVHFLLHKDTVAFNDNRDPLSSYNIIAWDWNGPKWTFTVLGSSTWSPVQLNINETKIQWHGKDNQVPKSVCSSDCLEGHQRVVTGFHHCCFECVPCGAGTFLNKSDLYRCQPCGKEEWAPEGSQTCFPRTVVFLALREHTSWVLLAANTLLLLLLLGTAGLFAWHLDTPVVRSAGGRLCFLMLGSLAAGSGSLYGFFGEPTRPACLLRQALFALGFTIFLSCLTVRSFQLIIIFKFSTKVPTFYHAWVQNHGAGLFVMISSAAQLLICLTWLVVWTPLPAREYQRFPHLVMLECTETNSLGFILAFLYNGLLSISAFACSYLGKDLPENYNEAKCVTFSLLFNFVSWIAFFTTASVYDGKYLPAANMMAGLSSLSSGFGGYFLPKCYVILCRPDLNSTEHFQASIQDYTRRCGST", "T1 sequence (Q923K1 21-858)": "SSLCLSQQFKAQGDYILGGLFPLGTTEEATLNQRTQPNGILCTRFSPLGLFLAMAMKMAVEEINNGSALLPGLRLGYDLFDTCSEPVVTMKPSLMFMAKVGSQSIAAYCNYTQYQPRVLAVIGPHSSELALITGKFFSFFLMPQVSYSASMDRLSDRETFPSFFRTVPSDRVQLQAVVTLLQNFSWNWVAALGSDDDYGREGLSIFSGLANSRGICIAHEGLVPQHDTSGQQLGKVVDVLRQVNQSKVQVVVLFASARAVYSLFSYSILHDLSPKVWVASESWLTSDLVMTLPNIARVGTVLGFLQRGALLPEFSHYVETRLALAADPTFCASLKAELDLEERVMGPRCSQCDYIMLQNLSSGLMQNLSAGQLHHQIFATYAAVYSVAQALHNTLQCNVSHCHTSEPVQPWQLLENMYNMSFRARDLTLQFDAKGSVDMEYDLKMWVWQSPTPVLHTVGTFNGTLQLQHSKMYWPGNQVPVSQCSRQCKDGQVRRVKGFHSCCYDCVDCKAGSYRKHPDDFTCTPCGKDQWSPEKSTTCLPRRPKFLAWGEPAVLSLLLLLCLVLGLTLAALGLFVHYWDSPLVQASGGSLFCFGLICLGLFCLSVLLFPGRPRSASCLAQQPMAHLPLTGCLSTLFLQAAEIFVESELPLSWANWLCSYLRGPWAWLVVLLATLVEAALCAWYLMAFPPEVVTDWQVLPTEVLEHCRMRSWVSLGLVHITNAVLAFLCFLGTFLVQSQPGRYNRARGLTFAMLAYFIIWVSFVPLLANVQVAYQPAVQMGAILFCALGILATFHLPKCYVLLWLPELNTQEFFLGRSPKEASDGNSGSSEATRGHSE", "experiment": "cell-based", "format": "cell-based, human, rat", "source_text": "Chimeric Gα proteins, such as Gα16Gust44, Gα16Gi3 or Gα15i2, are widely used in the functional expression of TAS1R receptors ([Backes et al., 2015]; [Suess et al., 2015]; [Toda et al., 2021], [Toda et al., 2013], [Toda et al., 2018]; [Zhang et al., 2008]). Chimeric Gα15i2 (([Toda et al., 2013]), Supplementary data) was generated by replacing the last five residues of the C-terminal tail of rat Gα15i2 (EINLL) (UniProt number G3V6N8; https://www.uniprot.org/uniprot/) with the counterpart sequence from human GNAI2 (DCGLF) (UniProt number P04899-1) and cloning into the pcDNA3.1/Hygro vector (Invitrogen, Thermo Fisher Scientific, Illkirch, France) between the HindIII and NotI restriction sites, resulting in the plasmid pcDNA3.1-Gα15i2. Chimeric Gα16Gust44 construct have already been reported ([Raliou et al., 2011]). Briefly, Gα16Gust44 was generated by replacing the C-terminal of Gα16 with the C-terminal 44 residues of gustducin. As previously described, hTAS1R1 was amplified from human fungiform papillae cDNA and cloned and inserted into pcDNA3 (Invitrogen), generating pcDNA3-TAS1R1-WT (wild-type) ([Raliou et al., 2011]). […] The cDNA coding region of rTAS1R3 was synthesized with optimized-codon usage for human expression (Genewiz) and was cloned and inserted into the mammalian pcDNA4/myc-HisA (Invitrogen) expression vector between the EcoRI and NotI restriction sites, resulting in the plasmid pcDNA4-rTAS1R3. […] The sequence integrity of all the plasmid constructs was verified via automated DNA sequencing (Genewiz).\nThe hTAS1R1 mutants were co-expressed with the rTAS1R3 subunit in HEK293 cells. […] As a control, the functionality of the mutated receptors was checked after stimulation with S807 (Fig. S8), which interacts with TAS1R1-TMD ([Zhang et al., 2008])."}
{"compound": "N[C@@H](CCC(=O)N[C@@H](CS)C(=O)NCC(=O)O)C(=O)O", "note": "[GSH, γ-L-glutamyl-L-cysteinyl-glycine]", "values": [{"measurement": "EC50", "result": 12.4, "unit": "mM"}, {"measurement": "effect of the added compound (1 mM) on the response to L-Glu", "setting": "H71Y", "result": "did not affect"}, {"measurement": "Max ∆F/F0", "setting": "H71Y, GSH", "result": "0.65 ± 0.11"}, {"measurement": "R1 = mutant EC50/WT EC50", "setting": "H71Y, GSH", "result": 4.9}]}
